Reference: patent publication US9078852B2, “Retinaldehyde in the treatment of obesity, diabetes and other conditions” (The Brigham and Women's Hospital, Inc., priority 2008, dated 2015)
Like-named read-outs stand apart in the source and are kept apart here.

How the values were obtained:
[1] = test system: 3T3-L1 mouse pre-adipocyte; test: 3T3-L1 pre-adipocyte differentiation (adipogenesis) assay; type: cell-based; settings: for adiponectin expression / adipogenesis, compound added later: added Day 2 of differentiation; for adiponectin expression, compound added early: added Day 0 of differentiation
Procedure: We cultured and differentiated mouse 3T3-L1 preadipocytes and primary fibroblasts isolated from 16-days old embryos using standard procedures (Green, et al., Cell 3:127-33 (1974)). After reaching confluence (DMEM, high glucose, 10% calf serum, Day 0), cells were differentiated (3-isobutyl-1-methylxanthine 0.5 mM, dexamethasone 1 μM, insulin 1.7 μM) for 48 h before media replacement every 48 h (DMEM, 10% FCS insulin, 1.7 μM) for 7 days.
Northern blotting was performed as before with HyBond (Amersham; Ziouzenkova, et al., Proc. Natl. Acad. Sci. USA 100:2730-5 (2003)).
(§1) We determined triglyceride content in lysed cells (RIPA buffer, complete protease inhibitor cocktail, Roche) using an enzymatic colorimetric assay (Wako, Japan) and adiponectin levels via ELISA (R&D, Minneapolis). For Western blotting, cell lysates, plasma, and tissue lysates underwent reducing gel separation (10% acrylamide) and hybridization with RXR (Santa Cruz, Calif.), mouse RBP4 (Alpco), or UCP1 (Chemicon) antibodies.
To test Rald effects on adipogenesis, we performed 3T3-L1 mouse pre-adipocyte differentiation assays in the presence of Rald concentrations similar to those found in fat in vivo. Rald levels as low as 100 nM suppressed mRNA expression of the adipogenic target genes CD36, adiponectin, and aP2. These repressive effects of Rald were evident in a concentration-dependent manner in either the presence or absence of the PPARγ agonist BRL49653 (BRL), a potent adipogenic stimulus.

ob/ob mice = test: ob/ob mice, intraperitoneal administration, 3 weeks; type: in vivo, mouse; settings: for percentage of subcutaneous fat relative to total body fat / RBP4 plasma levels as compared to vehicle: retinoids 500 nM
Text: The Standing Committee On Animals at Harvard Medical School approved all protocols.
MRI data (1 mm slices) obtained on a Bruker Avance 500 wide bore spectrometer (11.7 T; 500 MHz for proton) fitted with a gradient amplifier and a 30 mm “birdcage” transmitter/receiver coil was processed with Paravision™ software. Spin Echo parameters included TI weighted images: TE=15 ms and TR=300 ms, matrix=256, FOV=30 mm; RARE images: TE=51 ms, TR=2500 ms, matrix=256, FOV=30 mm. Abdominal fat measurements used axial slices (n=8) at the level of the left renal pelvis.
After acclimation to powdered high fat diet (4 d), food/water intake, oxygen consumption, and carbon dioxide production were measured in metabolic cages (Ancare, Charles River Laboratories). Calculated metabolic rate (Weir equation) was expressed per g body weight. We performed insulin (ITT) and glucose tolerance tests (GTT) after food deprivation (16 h) using intraperitoneal insulin injection (ITT, 0.1 U/ml 0.005 ml/g body weight) or single 25% dextrose (GTT, 0.004 mL/g body weight) administration and glucometer measurements (Accu-Chek Advantage, Roche).
After 3 weeks, subcutaneous fat mass was quantified by magnetic resonance imaging (MRI).

Human full-length PPARγ2 = molecular target: T1, Human full-length PPARγ2 (Homo sapiens, UniProt P37231); test: Scintillation proximity assay / cell-free radioligand displacement; type: binding
T1 sequence (P37231 1-505): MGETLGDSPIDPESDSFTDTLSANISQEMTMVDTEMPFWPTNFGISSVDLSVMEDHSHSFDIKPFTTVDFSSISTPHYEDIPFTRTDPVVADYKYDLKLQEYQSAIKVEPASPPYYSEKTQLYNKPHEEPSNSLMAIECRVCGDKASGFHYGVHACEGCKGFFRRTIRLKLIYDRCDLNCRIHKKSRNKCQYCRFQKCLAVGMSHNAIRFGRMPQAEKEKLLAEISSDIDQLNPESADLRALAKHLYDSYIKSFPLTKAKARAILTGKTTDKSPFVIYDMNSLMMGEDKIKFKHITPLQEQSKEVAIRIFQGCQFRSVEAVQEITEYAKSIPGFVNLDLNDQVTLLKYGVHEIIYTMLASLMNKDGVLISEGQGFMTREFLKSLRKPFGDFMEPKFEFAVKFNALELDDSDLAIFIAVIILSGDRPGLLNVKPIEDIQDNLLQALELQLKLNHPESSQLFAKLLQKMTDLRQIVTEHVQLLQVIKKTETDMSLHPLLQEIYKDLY
Procedure: Scintillation proximity assays were performed on our behalf.
(§2) Given these effects of Rald on RXR-LBD activation, we next tested if Rald could inhibit activation of a transfected canonical PPAR response element (PPRE) luciferase construct after RXR and/or PPARγ transfection and respective agonist stimulation (9-cis RA or BRL). […] Similar effects were evident in cell-based PPARγ-LBD assays in the presence of BRL. Thus, Rald suppresses adipogenic gene expression, adipocyte lipid accumulation, RXRα and PPARγ-LBD activation, as well as PPRE responses, all at concentrations (<1 μM) that overlap levels present in rodent fat in vivo. Importantly, these Rald effects diverge from the responses seen to RA.

[2] = test system: PPAR response element (PPRE); test: PPRE luciferase construct after RXR and/or PPARγ transfection; type: cell-based
Text: (§3) Transient transfection of NIH 3T3 cells (2.3×10^4 cells, 24-well plates) with PCMX-β-galactosidase and LBD/yeast Gal 4/luciferase constructs used Fugene (Roche) as before (Ziouzenkova, et al., Proc. Natl. Acad. Sci. USA 100:2730-5 (2003)). For siRNA transfections, 3T3-L1 cells (90% confluence, antibiotic-free DMEM, 10% CS, 24-well plates) received control (sequences C, D) or specific siRXRα and siRXRβ sequences (Santa Cruz) using Lipofectamine 2000/OptiMEM medium (Invitrogen) and media supplemented with 10% FBS 5 h post-transfection. Western blotting evaluated RXR levels post-transfection (48 h). After transfection (48 h), we induced differentiation before analysis after 7 days.
as §2

RARα-LBD = molecular target: T2, RARα-LBD (Homo sapiens, UniProt P10276); test: LBD-GAL4 transfection assay, RARα-LBD; type: cell-based
T2 construct: expressed in transfected cells; host or cells: NIH 3T3 cells
T2 sequence (P10276 183-417 limits assumed): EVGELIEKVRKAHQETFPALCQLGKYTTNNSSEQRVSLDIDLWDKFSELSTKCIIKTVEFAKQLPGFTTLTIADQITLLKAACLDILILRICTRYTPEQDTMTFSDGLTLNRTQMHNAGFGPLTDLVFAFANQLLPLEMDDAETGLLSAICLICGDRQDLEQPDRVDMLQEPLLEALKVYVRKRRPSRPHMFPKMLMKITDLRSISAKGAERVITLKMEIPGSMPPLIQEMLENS
Text: as §3
(§4) Given Rald's suppression of PPARγ agonist-stimulated adipogenesis and adiponectin release, we tested if Rald altered activation of RAR and RXR, and if it did so in a way distinct from other retinoids. Ligand binding domain (LBD)-GAL4 transfection assays were performed in 3T3-NIH fibroblasts in the presence or absence of known specific nuclear receptor agonists and/or Rald. […] Rald alone had no effect on RXRα-LBD activation. […] Thus, Rald plays a distinct, independent role from RA in RXRα-LBD regulation, suppressing ligand-mediated activation.

[3] = test system: RXRα/RXRβ siRNA-treated 3T3-L1 adipocytes; test: 3T3-L1 adipogenesis assay after RXRα/RXRβ siRNA; type: cell-based, mouse; settings: RXRα/RXRβ siRNA 48 hours, differentiation 7 days
Text: as §3, §1
To evaluate Rald effects in an RXR loss of function model, 3T3-L1 adipogenesis assays in the presence of Rald were repeated but after first decreasing RXRα and RXRβ levels using siRNA to each RXR isotype. […]

[4] = test system: preadipocytes isolated from human visceral fat depots; test: Adipogenesis in preadipocytes from human visceral fat; type: cell-based
RXRα-LBD = molecular target: T3, RXRα-LBD (Homo sapiens, UniProt P19793); test: LBD-GAL4 transfection assay, RXRα-LBD; type: cell-based
T3 construct: expressed in transfected cells; host or cells: NIH 3T3 cells
T3 sequence (P19793 227-458 limits assumed): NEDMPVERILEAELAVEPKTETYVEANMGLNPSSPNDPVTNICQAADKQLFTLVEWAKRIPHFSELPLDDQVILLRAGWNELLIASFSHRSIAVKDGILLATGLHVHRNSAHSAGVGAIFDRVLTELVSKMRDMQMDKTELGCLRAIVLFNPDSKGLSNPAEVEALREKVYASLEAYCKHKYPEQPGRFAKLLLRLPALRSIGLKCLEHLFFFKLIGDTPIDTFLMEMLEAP
Text: as §3, §4

PPARγ-LBD = molecular target: T4, PPARγ-LBD (Homo sapiens, UniProt P37231); test: Cell-based PPARγ-LBD assay; settings: presence of BRL; concentrations <1 μM
T4 construct: expressed in transfected cells; host or cells: NIH 3T3 cells
T4 sequence (P37231 238-503 limits assumed): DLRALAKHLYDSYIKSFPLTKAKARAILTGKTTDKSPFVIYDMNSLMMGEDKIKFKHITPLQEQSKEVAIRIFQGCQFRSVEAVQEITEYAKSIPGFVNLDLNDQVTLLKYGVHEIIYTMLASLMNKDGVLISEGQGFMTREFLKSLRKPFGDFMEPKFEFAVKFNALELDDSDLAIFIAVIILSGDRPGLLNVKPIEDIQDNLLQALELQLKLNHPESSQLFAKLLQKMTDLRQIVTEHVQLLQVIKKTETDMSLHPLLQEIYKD
Text: as §3, §2

rats = settings: cited from earlier work
[5] = MRI after 3 weeks, i.p., citral 10 μM
[6] = cell-free radioligand displacement, read-out: Kd, displacement of high affinity PPARγ agonists
[7] = summary statement, unit inferred, read-out: Kd, receptor binding

SMILES: CC1=C(/C=C/C(C)=C/C=C/C(C)=C/C(=O)O)C(C)(C)CCC1 [all-trans RA, Retinoic acid, reference compound]
- adiponectin expression / adipogenesis, compound added later [1]: no effect
- percentage of subcutaneous fat relative to total body fat (ob/ob mice; [5]): 19.1±1.6%
- RBP4 plasma levels as compared to vehicle (ob/ob mice; i.p., citral 10 μM): no effect

SMILES: CC1=C(/C=C/C(C)=C\C=C\C(C)=C\C=O)C(C)(C)CCC1 [9-cis Rald]
- Kd (Human full-length PPARγ2; [6]): 5.9 ± 0.7 µM
- Kd (Human full-length PPARγ2; [7]): 5.9 ± 0.7 µM

SMILES: CC1=C(/C=C/C(C)=C/C=C/C(C)=C/CO)C(C)(C)CCC1 [vitamin A, retinol, reference compound]
- percentage of subcutaneous fat relative to total body fat (ob/ob mice; [5]): 17.3±1.3%
- RBP4 plasma levels as compared to vehicle (ob/ob mice; i.p., citral 10 μM): increased RBP4 plasma levels two-fold

SMILES: CC1=C(/C=C/C(C)=C/C=C/C(C)=C/C=O)C(C)(C)CCC1 [13-cis Rald]
- Kd (Human full-length PPARγ2; [6]): 9.7 ± 1.2 µM
- Kd (Human full-length PPARγ2; [7]): 9.7 ± 1.2 µM

SMILES: CN(CCOc1ccc(CC2SC(=O)NC2=O)cc1)c1ccccn1 (stereo not drawn) [BRL, rosiglitazone, reference compound]
- adiponectin levels induced by BRL stimulation [1]: six-fold increase

SMILES: CC1=C(/C=C/C(C)=C/C=C/C(C)=C/C=O)C(C)(C)CCC1 [Rald, retinaldehyde]
- Kd (Human full-length PPARγ2; [7]): 11.9 ± 1.9 µM
- inhibition of PPRE activation ([2]; PPARγ and RXR co-transfection and PPARγ agonist stimulation): 60%
- PPRE activation by both agonists (9-cis RA or BRL) ([2]; RXR and/or PPARγ transfection): significantly inhibited
- RARα-LBD activation (RARα-LBD; compound alone, 3T3-NIH fibroblasts): weakly activated
- RARα-LBD activation by 9-cis RA (RARα-LBD; in presence of 9-cis RA): did not alter
- adiponectin levels induced by BRL stimulation [1]: mitigated
- mRNA expression of adipogenic target genes CD36, adiponectin, aP2 ([1]; Rald levels as low as 100 nM, presence or absence of BRL): suppressed
- lipid accumulation ([1]; absence and presence of BRL): decreased
- adiponectin expression, compound added early [1]: inhibited
- adiponectin expression / adipogenesis, compound added later [1]: also inhibited adipogenesis
- adiponectin secretion ([1]; stimulation early or late, concentration-dependent): decreased
- adiponectin secretion after siRNA exposure [3]: no additional effects
- triglyceride accumulation after siRNA exposure [3]: further decreased
- adipogenesis [4]: repressed
- subcutaneous fat (ob/ob mice; MRI after 3 weeks, i.p. 500 nM): significantly less subcutaneous fat
- percentage of subcutaneous fat relative to total body fat (ob/ob mice; [5]): 15.5±0.6%
- glucose tolerance (ob/ob mice; i.p., Rald 500 nM, citral 10 μM): improved
- RBP4 plasma levels as compared to vehicle (ob/ob mice; i.p., citral 10 μM): significantly suppressed
- RXRα-LBD activation (RXRα-LBD; compound alone): no effect
- RXRα-LBD activation by 9-cis RA (RXRα-LBD; in presence of 9-cis RA): significantly inhibited
- PPARγ-LBD activation (PPARγ-LBD): suppresses

SMILES: CC(C)=CCCC(C)=CC=O [citral, 3,7-dimethyl-2,6-octadienal]
- tolerability (rats; high doses, rats): well tolerated
- body weight versus citral free diet (rats; rats fed a diet with citral): weighed less
- RBP4 plasma levels as compared to vehicle (ob/ob mice; i.p., citral 10 μM): significantly suppressed

SMILES: CC1=C(/C=C/C(C)=C\C=C\C(C)=C\C(=O)O)C(C)(C)CCC1 [9-cis RA, reference compound]
- adiponectin expression, compound added early [1]: inhibited
- adiponectin expression / adipogenesis, compound added later [1]: no effect
